Values of other authors, collected in patent US10695287B2, “AMPK agonist topical medication for the treatment of certain specific medical conditions, methods of use thereof and wound dressing employing the same” (CERSCI THERAPEUTICS, INC., priority 2015, dated 2020).

Test system: AMPK
Conditions: topical administration; animal model (rodents); literature (Price et al. 2013; Tillu et al. 2012)

Oc1ccc(C=Cc2cc(O)cc(O)c2)cc1 [resveratrol]
mitigation of pain: has shown efficacy in mitigation of pain
